Source: paper PMC9574860, “Chemical Toolkit for PARK7: Potent, Selective, and High-Throughput” (Journal of Medicinal Chemistry, 2022)

Key:
UCHL1 = molecular target: T1, UCHL1 (Homo sapiens, UniProt P09936); experiment: Gel-based competition assay with probe 8RK59, UCHL1 band; format: biochemical; details: compound 2 μM, 1 h; PARK7 and UCHL1 1 μM each; then 8RK59 2 μM 30 min; Figure 3B
T1 sequence (P09936 1-223): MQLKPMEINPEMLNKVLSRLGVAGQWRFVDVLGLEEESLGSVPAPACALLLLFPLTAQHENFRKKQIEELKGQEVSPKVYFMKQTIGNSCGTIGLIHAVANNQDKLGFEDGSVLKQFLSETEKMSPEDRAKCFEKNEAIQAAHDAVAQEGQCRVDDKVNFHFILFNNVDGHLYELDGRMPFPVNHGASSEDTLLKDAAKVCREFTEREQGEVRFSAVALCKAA
Procedure: (§1) To assess the inhibitory potency and selectivity of these compounds toward PARK7 and UCHL1, we performed a gel-based competition assay (Figure 3A).[36] A mixture of equal amounts of PARK7 and UCHL1 (1 μM) was treated with each of the synthesized compounds (2 μM) for 1 h, followed by incubation with fluorescent probe 8RK59 (2 μM) for 30 min. Samples were resolved by SDS-PAGE, and the gel was scanned for fluorescence. Inhibition of PARK7 or UCHL1 is reflected by the disappearance of their corresponding bands (Figure 3B). […] The inhibition potential of JYQ-88 against PARK7 was assessed in a similar assay where PARK7 was incubated with a serial dilution of JYQ-88 before treatment with probe 8RK59 (Figure 3C). A clear inhibition is visible at 0.5 μM, and full inhibition is achieved between 1 and 2 μM. […] The selectivity of JYQ-88 between UCHL1 and PARK7 was further confirmed in a direct competition assay between equal amounts of PARK7 and UCHL1 (Figure 3F). PARK7 inhibition was observed starting from 0.5 μM JYQ-88, whereas inhibition of UCHL1 was only detected at 20 μM. Since JYQ-88 and 8RK64 are enantiomers, we assumed that the interactions with PARK7 should be similar. To investigate how the chiral center influences the selectivity, we solved the crystal structure of the PARK7−JYQ-88 complex with 1.42 Å resolution (Figure 3G, Table S1, PDB 7PA3). The global positioning of the inhibitor in between the two α-helices was similar to that for 8RK64. […] This way, the thiazolo-pyridine part of JYQ-88 is bound in a similar manner as 8RK64 and the earlier observed interactions are largely the same. The formation of the isothiourea moiety, stabilized by the interaction with Glu18, and the interaction between the thiazole amine and the amide NH2 of the Asn76 side chain are still present. However, the interaction between the azidoacetyl carbonyl with the Leu128 backbone carbonyl can no longer be observed due to the rotation of the azidoacetyl moiety. The Lys132 residue also seems to have rotated (compared to Figure 2C).
(§2) The assay was performed in Tris buffer as described above.

PARK7 [1] = molecular target: T2, PARK7 (Homo sapiens, UniProt Q99497); experiment: Gel-based competition assay with probe 8RK59, PARK7 band; format: biochemical; parameters: GST (N, cleaved yes); made in house; host or cells: E. coli BL21(DE3) Rosetta2; details: compound 2 μM, 1 h; PARK7 and UCHL1 1 μM each; then 8RK59 2 μM 30 min; Figure 3B
T2 sequence (Q99497 1-189): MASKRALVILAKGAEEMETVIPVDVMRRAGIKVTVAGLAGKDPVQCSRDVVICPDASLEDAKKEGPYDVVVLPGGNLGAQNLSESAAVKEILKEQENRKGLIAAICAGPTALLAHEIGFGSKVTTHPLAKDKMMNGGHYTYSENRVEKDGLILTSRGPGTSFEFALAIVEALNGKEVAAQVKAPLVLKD
Procedure: as §1, §2

PARK7 [2] = molecular target: T2, PARK7; experiment: FP assay with Rhodamine110 probe JYQ-107 (IC50 and hit validation); format: binding; parameters: GST (N, cleaved yes); made in house; host or cells: E. coli BL21(DE3) Rosetta2; details: for inhibition at 12.5 µM: read-out: FP assay %Inhibiton (12.5 µM); for inhibition at 37.5 µM: read-out: FP assay %Inhibiton (37.5 µM); for inhibition at 100 µM: read-out: FP assay %Inhibiton (100 µM)
Procedure: The assay was performed using the conditions as described above with a reaction volume of 20 μL per well in triplicate. Stock solutions of JYQ-88 of 1 and 0.1 mM were prepared. […] The FP signal was monitored with a BMG Labtech PHERAstar plate reader (λex/em 480/520 nm) for 2 h.
The validation was performed using the conditions as described above with a reaction volume of 20 μL per well in triplicate. […] The FP signal was monitored with a BMG Labtech PHERAstar plate reader (λex/em 480/520 nm) for 2 h. The relative loss of FP signal compared with reference controls was used to calculate the remaining enzyme activity. Inhibition percentage of these 40 compounds was plotted as a heatmap using GraphPad Prism 9.0.1 software. Color gradients indicate inhibition percentage, no inhibiton (white) and full inhibition (blue).

PARK7 [3] = molecular target: T2, PARK7; experiment: DiFMUAc PARK7 activity assay; format: biochemical; parameters: GST (N, cleaved yes); made in house; host or cells: E. coli BL21(DE3) Rosetta2; details: for inhibition at 12.5 µM: read-out: DiFMuAc assay %Inhibiton (12.5 µM); for inhibition at 37.5 µM: read-out: DiFMuAc assay %Inhibiton (37.5 µM); for inhibition at 100 µM: read-out: DiFMuAc assay %Inhibiton (100 µM)
Procedure: Compounds were transferred using a Labcyte Echo550 acoustic dispenser to obtain a 12-point serial dilution of 0.001 to 100 μM. Next, PARK7 (15 μL, final concentration of 0.1 μM) was dispensed with a Biotek MultiFlowFX liquid dispenser and incubated for 1 h, followed by dispensing the substrate DiFMUAc (5 μL, final concentration of 300 μM). The fluorescence intensity (FI) signal was monitored with a BMG Labtech PHERAstar plate reader (λex/em 350/450 nm) for 1 h.
The validation was performed in the PBS buffer with a reaction volume of 20 μL per well in triplicate. […] Next, PARK7 (15 μL, final concentration 0.1 μM) was dispensed with a Biotek MultiFlowFX liquid dispenser and incubated for 2 h, followed by dispensing the substrate DiFMUAc (5 μL, final concentration 300 μM). The FI signal was monitored with a BMG Labtech PHERAstar plate reader (λex/em 350/450 nm) for 1 h. The increase of FI signal compared with reference controls was used to calculate the remaining enzyme activity. The inhibition percentage of these 22 compounds was plotted as a heatmap using GraphPad Prism 9.0.1 software. Color gradients indicate inhibition percentage, no inhibiton (white) and full inhibition (blue).

[4] = 12.5 µM compound, PARK7 0.2 μM, 1 h preincubation, JYQ-107 20 nM
[5] = 37.5 µM compound, PARK7 0.2 μM, 1 h preincubation, JYQ-107 20 nM
[6] = 100 µM compound, PARK7 0.2 μM, 1 h preincubation, JYQ-107 20 nM
[7] = 12.5 µM compound, PARK7 0.1 μM, 2 h preincubation, DiFMUAc 300 μM
[8] = 37.5 µM compound, PARK7 0.1 μM, 2 h preincubation, DiFMUAc 300 μM
[9] = 100 µM compound, PARK7 0.1 μM, 2 h preincubation, DiFMUAc 300 μM

Structure (SMILES) | FP assay %Inhibiton (12.5 µM) (PARK7 [2]; [4]) | FP assay %Inhibiton (37.5 µM) (PARK7 [2]; [5]) | FP assay %Inhibiton (100 µM) (PARK7 [2]; [6]) | DiFMuAc assay %Inhibiton (12.5 µM) (PARK7 [3]; [7]) | DiFMuAc assay %Inhibiton (37.5 µM) (PARK7 [3]; [8]) | DiFMuAc assay %Inhibiton (100 µM) (PARK7 [3]; [9]) | further results
N#CN1CC[C@H](C(=O)Nc2nc3c(s2)CN(C(=O)Cc2ccncc2)CC3)C1 [JYQ-76, (S)-1-Cyano-N-(5-(2-(pyridin-4-yl)acetyl)-4,5,6,7-tetrahydrothiazolo[5,4-c]pyridin-2-yl)pyrrolidine-3-carboxamide] |  |  |  |  |  |  | Inhibition of UCHL1 (disappearance of 8RK59-labeled band) (UCHL1): fully inhibit; Inhibition of PARK7 (disappearance of 8RK59-labeled band) (PARK7 [1]): less efficiently
N#CN1CC[C@H](C(=O)Nc2nc3c(s2)CN(C(=O)c2ccc(Br)cc2)CC3)C1 [JYQ-77, (S)-N-(5-(4-Bromobenzoyl)-4,5,6,7-tetrahydrothiazolo[5,4-c]pyridin-2-yl)-1-cyanopyrrolidine-3-carboxamide] |  |  |  |  |  |  | Inhibition of UCHL1 (disappearance of 8RK59-labeled band) (UCHL1): hardly show any inhibition; Inhibition of PARK7 (disappearance of 8RK59-labeled band) (PARK7 [1]): hardly show any inhibition
CSC1(C(=O)Nc2cccc(S(=O)(=O)F)c2)CC1 [Z1832812427] | 98.3% | 100.0% | 100.0% | 98.0% | 92.6% | 100.0% | 
O=C(CCl)C1CCOCC1 [Z2491498268] |  |  |  |  |  |  | inhibition at 12.5 µM (PARK7 [2]; [4]): 100%; inhibition at 37.5 µM (PARK7 [2]; [5]): 100%; inhibition at 100 µM (PARK7 [2]; [6]): 100%; inhibition at 12.5 µM (PARK7 [3]; [7]): 94.3%; inhibition at 37.5 µM (PARK7 [3]; [8]): 95.5%; inhibition at 100 µM (PARK7 [3]; [9]): 93.2%
Cc1conc1NS(=O)(=O)c1cccc(S(=O)(=O)F)c1 [Z2509450956] | 100.0% | 100.0% | 100.0% | 98.5% | 98.2% | 97.5% | 
CC(C#N)NS(=O)(=O)c1cccc(S(=O)(=O)F)c1 (stereo not shown) [Z2509451091] | 100.0% | 100.0% | 100.0% | 94.5% | 95.2% | 94.5% | 
CCCc1nnc(NS(=O)(=O)c2cccc(S(=O)(=O)F)c2)o1 [Z2509455014] |  |  |  |  |  |  | inhibition at 12.5 µM (PARK7 [2]): 100%; inhibition at 37.5 µM (PARK7 [2]): 100%; inhibition at 100 µM (PARK7 [2]): 100%; inhibition at 12.5 µM (PARK7 [3]): 97.8%; inhibition at 37.5 µM (PARK7 [3]): 99.3%; inhibition at 100 µM (PARK7 [3]): 96.5%
CCn1ncnc1NS(=O)(=O)c1cccc(S(=O)(=O)F)c1 [Z2509462762] |  |  |  |  |  |  | inhibition at 12.5 µM (PARK7 [2]): 100%; inhibition at 37.5 µM (PARK7 [2]): 100%; inhibition at 100 µM (PARK7 [2]): 100%; inhibition at 12.5 µM (PARK7 [3]): 100%; inhibition at 37.5 µM (PARK7 [3]): 100%; inhibition at 100 µM (PARK7 [3]): 100%
O=C(CCl)c1ccc(F)c(C(=O)CCl)c1 [Z2768504793] |  |  |  |  |  |  | inhibition at 12.5 µM (PARK7 [2]; [4]): 100%; inhibition at 37.5 µM (PARK7 [2]; [5]): 100%; inhibition at 100 µM (PARK7 [2]; [6]): 100%; inhibition at 12.5 µM (PARK7 [3]; [7]): 98%; inhibition at 37.5 µM (PARK7 [3]; [8]): 98.5%; inhibition at 100 µM (PARK7 [3]; [9]): 95.9%
O=[N+]([O-])c1ccccc1S(=O)(=O)F [Z3223579620] | 100.0% | 100.0% | 100.0% | 99.2% | 98.3% | 98.2% | 
Cc1ccc(C(=O)O)cc1S(=O)(=O)F [Z3242849759] | 100.0% | 100.0% | 100.0% | 93.6% | 95.8% | 93.1% | 
O=[N+]([O-])c1cccc(S(=O)(=O)F)c1 [Z3243697698] | 100.0% | 100.0% | 100.0% | 100.0% | 100.0% | 100.0% | 
